{"source": "patent US20060211764A1", "about": "“Cell activator, process for producing cell activator and apparatus therefor” (priority 2002, published 2006)", "key": {"[1]": {"test": "Examinations after ingestion by healthy subjects and long-term patients", "assay_type": "in vivo, human"}, "[2]": {"test": "Blood screening and biochemical examination of blood in bovines given CPL", "assay_type": "in vivo, bovine"}, "hepatitis C": {"tested_on": "hepatitis C", "test": "Administration to a human patient, hepatitis C", "assay_type": "in vivo", "conditions": "person; 20 g/day for 16 months"}, "laryngeal cancer": {"tested_on": "laryngeal cancer", "test": "Administration to a human patient, laryngeal cancer", "assay_type": "in vivo", "conditions": "person; 20 g/day for 150 days"}, "[3]": {"test": "Administration to bovines antepartum", "assay_type": "in vivo, bovine", "quoted_text": "From 3 to 5 days before expected date of delivery, 50 g/day of CPL administration was initiated."}, "infertility": {"tested_on": "infertility", "test": "Administration to human patients, infertility", "assay_type": "in vivo"}, "cancer cells": {"tested_on": "cancer cells", "test": "Effects on cancer cells", "assay_type": "cell-based", "from_the_text": "(§1) Morphologically, it causes vacuolation, and the expansion of the cytoplasm of cells, disintegration and aggregation of the nucleus. […] These are considered to inhibit not only the synthesis of ATP but also the actions of mRNA and be involved in the synthesis of RNA and DNA, and the generation of intracellular energy by acting on the metabolism of the intracellular organelle such as rough-surfaced endoplasmic reticulum, smooth-surfaced endoplasmic reticulum, ribosome, Golgi apparatus, etc., and as a result, controlling the metabolism of the cells, influencing the synthesis of proteins/glycoprotein, intracellular lipid metabolism, and movement and transport of ions. […] Morphologically, in the case that cells end up degenerating, the degeneration generally changes first to the nucleus followed by the cytoplasm."}, "mastitis": {"tested_on": "mastitis", "test": "Administration to bovines, mastitis", "assay_type": "in vivo, bovine", "procedure": "If an antibiotic drug is administered as usual, it takes at least one week after CR to make shipment of milk from the bovines, resulting in loss of 70,000-100,000 yen per bovine. […] Thus, the invention can contribute to dairy managerial economies."}, "[4]": {"tested_on": "infantile asthma, atopic dermatitis", "test": "Administration to a child, infantile asthma, atopic dermatitis", "assay_type": "in vivo, human", "conditions": "CPL solution plus spraying agent, 15 g/day for 40 days, 10 g/day for next 140 days", "procedure": "In addition to the said solution, a spraying agent was used. The said spraying agent was prepared by filling a spraying container with a solution, which was prepared by further diluting by a flux the ointment manufactured by dissolving cyclic polylactic acids in a flux such as propylene glycol, etc. before they solidify, which was described in the <Example of manufacturing> section."}, "tongue cancer": {"tested_on": "tongue cancer", "test": "Administration to a human patient, tongue cancer", "assay_type": "in vivo", "conditions": "person; 20 g/day for 120 days"}, "uterine cervical cancer": {"tested_on": "uterine cervical cancer", "assay_type": "in vivo, human", "conditions": "ingesting CPL", "from_the_text": "In the case of elderly people whose metabolic functions are weaker, ingesting a large amount of a drug often causes adverse reactions and invites risks. […] This patient was taking a strong painkiller when fighting against cancer, which could be replaced by a common painkiller after taking CPL."}, "colon cancer": {"tested_on": "colon cancer", "test": "Administration to a human patient, colon cancer", "assay_type": "in vivo", "conditions": "person"}, "bacterial diarrhea": {"tested_on": "bacterial diarrhea", "test": "Administration to milking bovines, bacterial diarrhea", "assay_type": "in vivo, bovine", "from_the_text": "In the milking bovines, a bacterial diarrhea started to spread. Initially, four bovines infected by the bacterial diarrhea one after another. […] The bovines fed as usual even in the condition of diarrhea and no decrease in the amount of milk was observed."}, "[5]": {"tested_on": "lactate dehydrogenases (LDH)", "test": "Inhibition of lactate dehydrogenase activity of cancer cells", "assay_type": "biochemical", "from_the_text": "as §1"}}, "data": [{"substance": "Cyclic Poly-lactate [CPL]", "values": [{"measurement": "effect on results of examinations (physical findings, hematological/biochemical tests, urine and faeces)", "setting": "[1]; healthy subjects, 6 g/day", "value": "not to affect"}, {"measurement": "effect on biogenic basic functions (appetite, sleep, changes in weight, libido)", "setting": "[1]; human, in vivo", "value": "no effect"}, {"measurement": "abnormal findings from examinations", "setting": "[1]; patients who have taken 6 g/day for 3-5 years", "value": "no abnormal findings at all"}, {"measurement": "WBC", "setting": "[2]; bovine 901 (Screening), 3 May, treatment from 30 April, pretreatment 97", "value": "96 ×10^2"}, {"measurement": "GOT", "setting": "[2]; bovine 901 (Screening), 3 May, treatment from 30 April, pretreatment 134", "value": 128, "unit": "U/I"}, {"measurement": "TCHO", "setting": "[2]; bovine 901 (Screening), 3 May, treatment from 30 April, pretreatment 255", "value": 266, "unit": "mg/dL"}, {"measurement": "CPK", "setting": "[2]; bovine 901 (Screening), 3 May, treatment from 30 April, pretreatment 819", "value": 82, "unit": "U/I"}, {"measurement": "WBC", "setting": "[2]; bovine 901 (Screening), 7 May, pretreatment 97", "value": "94 ×10^2"}, {"measurement": "GOT", "setting": "[2]; bovine 901 (Screening), 7 May, pretreatment 134", "value": 116, "unit": "U/I"}, {"measurement": "TCHO", "setting": "[2]; bovine 901 (Screening), 7 May, pretreatment 255", "value": 245, "unit": "mg/dL"}, {"measurement": "CPK", "setting": "[2]; bovine 901 (Screening), 7 May, pretreatment 819", "value": 97, "unit": "U/I"}, {"measurement": "WBC", "setting": "[2]; bovine 901 (Screening), 10 May, completion date of treatment, pretreatment 97", "value": "71 ×10^2"}, {"measurement": "GOT", "setting": "[2]; bovine 901 (Screening), 10 May, completion date of treatment, pretreatment 134", "value": 115, "unit": "U/I"}, {"measurement": "TCHO", "setting": "[2]; bovine 901 (Screening), 10 May, completion date of treatment, pretreatment 255", "value": 286, "unit": "mg/dL"}, {"measurement": "CPK", "setting": "[2]; bovine 901 (Screening), 10 May, completion date of treatment, pretreatment 819", "value": 113, "unit": "U/I"}, {"measurement": "WBC", "setting": "[2]; bovine 923 (Garget), 3 May, treatment from 30 April, Spectrazol 2-4 May, pretreatment 101", "value": "111 ×10^2"}, {"measurement": "GOT", "setting": "[2]; bovine 923 (Garget), 3 May, treatment from 30 April, Spectrazol 2-4 May, pretreatment 123", "value": 107, "unit": "U/I"}, {"measurement": "TCHO", "setting": "[2]; bovine 923 (Garget), 3 May, treatment from 30 April, Spectrazol 2-4 May, pretreatment 247", "value": 255, "unit": "mg/dL"}, {"measurement": "CPK", "setting": "[2]; bovine 923 (Garget), 3 May, treatment from 30 April, Spectrazol 2-4 May, pretreatment 563", "value": 203, "unit": "U/I"}, {"measurement": "WBC", "setting": "[2]; bovine 923 (Garget), 7 May, pretreatment 101", "value": "97 ×10^2"}, {"measurement": "GOT", "setting": "[2]; bovine 923 (Garget), 7 May, pretreatment 123", "value": 81, "unit": "U/I"}, {"measurement": "TCHO", "setting": "[2]; bovine 923 (Garget), 7 May, pretreatment 247", "value": 208, "unit": "mg/dL"}, {"measurement": "CPK", "setting": "[2]; bovine 923 (Garget), 7 May, pretreatment 563", "value": 133, "unit": "U/I"}, {"measurement": "WBC", "setting": "[2]; bovine 923 (Garget), 10 May, completion date of treatment, pretreatment 101", "value": "110 ×10^2"}, {"measurement": "GOT", "setting": "[2]; bovine 923 (Garget), 10 May, completion date of treatment, pretreatment 123", "value": 107, "unit": "U/I"}, {"measurement": "TCHO", "setting": "[2]; bovine 923 (Garget), 10 May, completion date of treatment, pretreatment 247", "value": 259, "unit": "mg/dL"}, {"measurement": "CPK", "setting": "[2]; bovine 923 (Garget), 10 May, completion date of treatment, pretreatment 563", "value": 121, "unit": "U/I"}, {"measurement": "other blood responses such as WBC, GOT, and TCHO", "setting": "[2]; bovines given CPL", "value": "no specific changes"}, {"measurement": "CPK (muscle enzyme) mean level", "setting": "[2]; group of bovines with markedly high levels of CPK", "value": "extremely low"}, {"measurement": "condition of hepatitis C patient", "setting": "hepatitis C", "value": "satisfactory condition"}, {"measurement": "shadow on the liver", "setting": "hepatitis C", "value": "disappeared"}, {"measurement": "outcome of laryngeal cancer", "setting": "laryngeal cancer", "value": "cured"}, {"measurement": "mastitis prevention", "setting": "[3]; 50 g/day from 3 to 5 days before expected date of delivery", "value": "confirmed to play a role in mastitis prevention"}, {"measurement": "delivery of calves", "setting": "[3]; 50 g/day initiated 5 days before expected date of delivery", "value": "smoothly"}, {"measurement": "number of patients who conceived", "setting": "infertility; 10 patients with infertility, 6-9 g/day", "value": 8}, {"measurement": "lower abdominal pain", "setting": "infertility; person, endometriosis, ovarian cyst, 6 g/day, within the next 2-3 days", "value": "ameliorated"}, {"measurement": "conception", "setting": "infertility; person, after endometriosis symptoms ameliorated", "value": "naturally conceived"}, {"measurement": "proliferation of cancer cells", "setting": "cancer cells", "value": "controls the proliferation"}, {"measurement": "response of mastitis", "setting": "mastitis; oral, 50 g of CPL (powder) dissolved in water", "value": "Complete response"}, {"measurement": "milking from the other normal udders during treatment", "setting": "mastitis; treatment using CPL alone", "value": "available"}, {"measurement": "asthmatic seizures", "setting": "[4]", "value": "stopped"}, {"measurement": "eczema on the back and face", "setting": "[4]", "value": "disappeared"}, {"measurement": "itchiness", "setting": "[4]", "value": "cured"}, {"measurement": "outcome of tongue cancer", "setting": "tongue cancer", "value": "completely disappeared"}, {"measurement": "pain of patients suffering from advanced cancer", "setting": "uterine cervical cancer", "value": "diminishes the pain rapidly"}, {"measurement": "colon tumors of 2 cm in size (Stage 2-3)", "setting": "colon cancer; 20 g/day for 150 days, in 2 weeks", "value": "disappeared"}, {"measurement": "examination for colon cancer", "setting": "colon cancer; examination 5 months later", "value": "No abnormalities were found"}, {"measurement": "response of bacterial diarrhea", "setting": "bacterial diarrhea; 50 g/day, 100 g/day of Neothor in combination in severe cases, in most bovines", "value": "complete response"}, {"measurement": "amount of milk", "setting": "bacterial diarrhea; bovines with bacterial diarrhea given 50 g/day", "value": "no decrease"}, {"measurement": "activity of lactate dehydrogenases (LDH)", "setting": "[5]", "value": "inhibits"}]}]}
